Test results reported in PMC9377007, “An Unexpected Deuterium-Induced Metabolic Switch in Doxophylline” (ACS Medicinal Chemistry Letters, 2022).

Legend:
BLM-induced lung injury = assay: Bleomycin (BLM)-induced lung injury model; assay type: in vivo; settings: BLM-treated mice, 80 mg/kg orally daily; for fibrosis: collagen fibers, Masson's Trichrome and Picrosirius red staining, semiquantitative: versus vehicle group
Method: With regard to the BLM-induced lung injury, we treated mice orally with 80 mg/kg doxophylline, d4-doxophylline, or d7-doxophylline daily (Figure 6a). […] Finally, to investigate the fibrosis, we performed a semiquantitative analysis on the Masson’s Trichrome- and Picrosirius red-stained sections in order to evaluate the presence and the packing of collagen fibers. […] Furthermore, an interesting association of the inflammatory infiltrate and stromal remodeling was observed. Indeed, the decrease in the interstitial inflammatory state led to a reduction of fibrosis in the doxophylline- and d7-treated groups, as can be observed in the respective representative images.
Figure 6 Model of pulmonary fibrosis induced by bleomycin. Doxophylline and d7-doxophylline attenuate BLM-induced structural damage and lung fibrosis in mice. (a) Representative scheme of the BLM-induced lung injury model. (b) Total BAL cellularity of sham mice (not treated) and bleomycin-treated mice (treated or not with 80 mg/kg doxophylline, d4-doxophylline, or d7-doxophylline). Results are reported as mean ± SEM of three independent experiments. (c) Wet/dry lung weight ratio of sham and bleomycin-treated mice (treated or not with 80 mg/kg doxophylline, d4-doxophylline, or d7-doxophylline). Results are reported as mean ± SEM of three independent experiments. (d) MPO activity in lungs of sham and bleomycin-treated mice (treated or not with 80 mg/kg doxophylline, d4-doxophylline and d7-doxophylline). Results are reported as mean ± SEM of three independent experiments. (e) Representative images of H&E staining of sham and bleomycin-treated mice (treated or not with 80 mg/kg doxophylline, d4-doxophylline, or d7-doxophylline). (f, g) Representative images of (f) Masson’s trichrome staining and (g) Picrorius red staining of sham and bleomycin-treated mice (treated or not with 80 mg/kg doxophylline, d4-doxophylline, or d7-doxophylline). p values: *, p < 0.05; **, p < 0.01; ***, p < 0.001; ****, p < 0.0001.
8-week-old male C57Bl/6 mice (Envigo, Indianapolis, USA) weighing between 25 and 30 g were used. Animal care was in compliance with Italian regulations on protection of animals used for experimental purposes and were authorized by the Ministry of Health. We administered BLM (0.02U/50µl) by mouse pharyngeal aspiration, under isoflurane ana esthesia.2 Doxophylline, d4 or d7 ([…], solubilized in 0.9% NaCl solution) or saline treatment (vehicle) was given orally (gavage administration) 1 h before BLM treatment, and then once a day thereafter. Mice were euthanized on day 21 following BLM treatment.
BAL was performed through a tracheal cannula using 1 mL aliquots of ice -cold Ca2+/Mg2+-free phosphate-buffered medium (145 mM NaCl, 5 mM KCl, 1.9 mM NaH 2PO4, 9.35 mM Na2HPO4, and 5.5 mM dextrose, pH 7.4). BAL samples were centrifuged at 500× g for 5 min at 4 °C, and cell pellets were washed an d resuspended in phosphate -buffered medium. BAL cells were enumerated by counting on a Hemocytometer the presence of the trypan blue stain.
Myeloperoxidase (MPO) activity, a marker of polymorphonuclear leukocyte (PMN) infiltration, was determined using MPO Colorimetric Activity Assay Kit (Merck Life Science), according to the manufacturer’s protocol. MPO activity was described as the amount of enzyme degrading 1 μM of peroxide/minute at 37°C and was expressed in U/mg of wet tissue.
Evaluation of fluid content in lungs.
The wet lung weight was calculated after harvesting the lungs, without any extraneous tissue. The lung s were subjected for 72 hours at 100°C and the dry weight was measured. Water content was calculated b y subtracting dry weight from wet weight.
Lungs were fixed with 10% buffered formalin at room temperature for 48h, dehydrated in 70% ethanol, and embedded in paraffin with Diapath automatic processor. Sections (4 μm thick) were stained with hae matoxylin and eosin (H&E) according to standard protocol and samples were mounted in Eukitt (Bio -Optica). To […]

[1] = Levels of doxophylline metabolites in mice plasma; assay type: in vivo
Source text: From an analysis of the levels of metabolites in mice plasma, it was seen that deuteration of the dioxolane ring (d4-doxophylline) triggered considerable alterations in the relative abundances of the metabolites generated. […] This is mainly related to a marked increase of the metabolic route 2, in which the electronic influence of the two oxygen atoms adjacent to the target sp^3 carbon atom greatly facilitates oxene attack and homolytic cleavage of the C–H bond.[29]
With regard to d7-doxophylline, only a semiquantitative determination was feasible because its metabolites (with the exception of theophylline) retain deuterium atoms (see the Supporting Information for structures). Indeed, the presence of deuterium lowers the signals in the electrospray ionization source, and the corresponding deuterated standards of the metabolites would have been necessary to perform an accurate quantification. Moreover, no reference standard was available for the quantification of the metabolites dm-doxophylline 9 and dh-doxophylline 10, and their relative abundances were expressed as peak areas of the corresponding accurate-mass ions.
• Comparative pharmacokinetic study
A total of 96 CD1 male mice, approximately 6 weeks old and with a body weight of approximately 30 g, were purchased from Envigo RMS srl, (San Pietro al Natisone, UD, Italy). […]
Protocol for drug administration and blood sampling.
Blood samples were collected under light isoflurane anaesthesia from the sublingual vein at the following time points (n=3): pre-dose and 5, 15, 30 minutes, 1, 2, 4, 8 and 24 hours after i.v. dosing (20 mg/Kg, dose volume 5 mL/Kg) and pre-dose and 15, 30 minutes, 1, 2, 4, 8 and 24 hours after oral gavage dosing (80 mg/Kg, dose volume 5 mL/Kg). Each animal was sampled on each day at a maximum of two alternating time points.
Samples were transferred into tubes containing K3EDTA as anticoagulant, centrifuged, and stored at -80 °C. […] Sample preparation for HPLC-MS analysis.
A volume of 50 µL of caffeine solution (1 mg/L in water-methanol 1:1) were added to plasma sample aliquots (50 µL); after the addition of the precipitant solution (100 µL of 10% ice-cold trichloroacetic acid in water), samples were centrifuged at 13,000 rpm for ten minutes and the supernatant injected onto the HPLC system (see supporting information for chromatographic conditions). If the levels of analytes were over range, plasma samples were preventively diluted with blank plasma.
Quantification of doxophylline and its deuterated analogues d4 and d7 as well as their main metabolites, 7-theophylline acetic acid (T-COOH), 7-hydroxyethyl theophylline (Eto) and theophylline, was performed by using the calibration curves obtained with the corresponding working standards of the analytes and using caffeine as internal standard.
The pharmacokinetic parameters for doxophylline and its deuterated analogues were calculated by plotting the plasma concentration curves versus time obtained from the average values of three animals, using PK Solver

Row | Structure (SMILES) | MPO activity in lungs (BLM-induced lung injury) | accumulation of immune cells in bronchoalveolar lavage (total BAL cellularity) (BLM-induced lung injury) | histological examination by H&E staining (BLM-induced lung injury) | ratio between wet and dry lung (BLM-induced lung injury) | fibrosis: collagen fibers, Masson's Trichrome and Picrosirius red staining, semiquantitative (BLM-induced lung injury) | levels of all metabolites except dm-doxophylline 9 versus doxophylline ([1]; semiquantitative determination) | level of metabolite etophylline 7 versus doxophylline [1] | plasmatic level of metabolite theophylline 1 versus doxophylline [1] | level of dehydrogenated metabolite dh-doxophylline 10 versus doxophylline ([1]; peak area) | plasmatic level of metabolite dm-doxophylline 9 versus doxophylline ([1]; peak area)
1 | Cn1c(=O)c2c(ncn2CC2OCCO2)n(C)c1=O [doxophylline] | decreased | significantly reverted | decrease in the inflammatory interstitial infiltrate | decreased liquid accumulation | slight tendency toward reduction in thickness and packing of collagen fibers |  |  |  |  | 
2 | [2H]C1([2H])OC([2H])(C([2H])([2H])n2cnc3c2c(=O)n(C)c(=O)n3C)OC1([2H])[2H] [d7-doxophylline] | decreased | significantly reverted | decrease in the inflammatory interstitial infiltrate | decreased liquid accumulation | slight tendency toward reduction in thickness and packing of collagen fibers | diminished levels |  |  |  | 
3 | [2H]C1([2H])OC(Cn2cnc3c2c(=O)n(C)c(=O)n3C)OC1([2H])[2H] [d4-doxophylline] |  | of lesser extent and lacked statistical significance | decrease in the inflammatory interstitial infiltrate |  | slight tendency toward reduction in thickness and packing of collagen fibers |  | decreased level | significant increase | decrease | significant increase
